# Laboratory results reported in patent publication US12245562B2, “System for rapid, robust, and efficient in vitro mass propagation of Miscanthus x giganteus” (Delaware State University, priority 2017, dated 2025).
# Where a name gives a salt, the structure may show the parent alone.
# Test system: endophytic fungi
# Test: control of endophyte growth in in vitro shoot culture media
# Type: cell-based
# Details: 54 μM in DSIM culture medium of Miscanthus x giganteus; compared with vancomycin hydrochloride 0, 13.5, 27, 41.5 μM and tetracycline hydrochloride 20.8 or 52 μM
compound,measurement,value
"CN[C@H](CC(C)C)C(=O)N[C@H]1C(=O)N[C@@H](CC(N)=O)C(=O)N[C@H]2C(=O)N[C@H]3C(=O)N[C@H](C(=O)N[C@H](C(=O)O)c4cc(O)cc(O)c4-c4cc3ccc4O)[C@H](O)c3ccc(c(Cl)c3)Oc3cc2cc(c3O[C@@H]2O[C@H](CO)[C@@H](O)[C@H](O)[C@H]2O[C@H]2C[C@](C)(N)[C@H](O)[C@H](C)O2)Oc2ccc(cc2Cl)[C@H]1O [vancomycin, vancomycin hydrochloride]",controlling the growth of endophytic fungi in the culture media,more effective
